According to patent publication US20250382273A1 (INSTITUT NATIONAL DE LA SANTE ET DE LA RECHERCHE MEDICALE, priority 2022, published 2025):
Where two headings read alike, the source gives them in different places.

Test system: M. tuberculosis H37Rv_DdnL49P_gfp
Assay type: cell-based, Mycobacterium tuberculosis
[1] = read-out: EC50 H37Rv_DdnL49P_gfp

SMILES	EC50 [1]	EC50 (in combination with pretomanid, unit inferred, read-out: average EC50 H37Rv_DdnL49P_gfp)
Cc1ccc2nc(NC(=O)[C@@H]3C4C=CC(C4)[C@@H]3C(=O)O)sc2c1 (mixture of isomers) [Example 1, 3-[(6-methyl-1,3-benzothiazol-2-yl)carbamoyl]bicyclo[2.2.1]hept-5-ene-2-carboxylic acid]	5 to 10 µM	
Cc1ccc2nc(NC(=O)[C@@H]3C4CCC(C4)[C@@H]3C(=O)O)sc2c1 (stereo in doubt) [Example 3, 3-[(6-methyl-1,3-benzothiazol-2-yl)carbamoyl]norbornane-2-carboxylic acid]	1 to 5 µM	
Cc1ccc2nc(N3C(=O)[C@@H]4[C@H](C3=O)[C@@H]3C=C[C@H]4C3)sc2c1 [Example 2, (1R,2S,6R,7S)-4-(6-methyl-1,3-benzothiazol-2-yl)-4-azatricyclo[5.2.1.02,6]dec-8-ene-3,5-dione]	5 to 10 µM	
CCOc1ccc2nc(NC(=O)[C@@H]3C4C=CC(C4)[C@@H]3C(=O)O)sc2c1 (stereo partly drawn) [Example 7, 3-[(6-ethoxy-1,3-benzothiazol-2-yl)carbamoyl]bicyclo[2.2.1]hept-5-ene-2-carboxylic acid]	< 1 µM	1 µM
CCOc1ccc2nc(N3C(=O)[C@@H]4[C@H](C3=O)[C@@H]3C=C[C@H]4C3)sc2c1 [Example 8, (1R,2S,6R,7S)-4-(6-ethoxy-1,3-benzothiazol-2-yl)-4-azatricyclo[5.2.1.02,6]dec-8-ene-3,5-dione]	1 to 5 µM	
COc1cc2nc(NC(=O)[C@@H]3C4C=CC(C4)[C@@H]3C(=O)O)sc2cc1OC (stereo partly drawn) [Example 9, 3-[(5,6-dimethoxy-1,3-benzothiazol-2-yl)carbamoyl]bicyclo[2.2.1]hept-5-ene-2-carboxylic acid]	5 to 10 µM	
O=C(Nc1nc2cc3c(cc2s1)OCCO3)[C@@H]1C2C=CC(C2)[C@@H]1C(=O)O (stereo partly drawn) [Example 10, 3-(6,7-dihydro-[1,4]dioxino[2,3-f][1,3]benzothiazol-2-ylcarbamoyl) bicyclo[2.2.1]hept-5-ene-2-carboxylic acid]	10 to 20 µM	
CCc1ccc2nc(NC(=O)[C@@H]3C4C=CC(C4)[C@@H]3C(=O)O)sc2c1 (stereo partly drawn) [Example 11, 3-[(6-ethyl-1,3-benzothiazol-2-yl)carbamoyl]bicyclo[2.2.1]hept-5-ene-2-carboxylic acid]	1 to 5 µM	
CC(C)(C)c1ccc2nc(NC(=O)[C@@H]3C4C=CC(C4)[C@@H]3C(=O)O)sc2c1 (stereo partly drawn) [Example 12, 3-[(6-tert-butyl-1,3-benzothiazol-2-yl)carbamoyl]bicyclo[2.2.1]hept-5-ene-2-carboxylic acid]	< 1 µM	
Cc1cc(C)c2nc(NC(=O)[C@@H]3C4C=CC(C4)[C@@H]3C(=O)O)sc2c1 (stereo partly drawn) [Example 13, 3-[(4,6-dimethyl-1,3-benzothiazol-2-yl)carbamoyl]bicyclo[2.2.1]hept-5-ene-2-carboxylic acid]	1 to 5 µM	
Cc1ccc2sc(NC(=O)[C@@H]3C4C=CC(C4)[C@@H]3C(=O)O)nc2c1C (stereo partly drawn) [Example 15, 3-[(4,5-dimethyl-1,3-benzothiazol-2-yl)carbamoyl]bicyclo[2.2.1]hept-5-ene-2-carboxylic acid]	1 to 5 µM	
Cc1cccc2sc(NC(=O)[C@@H]3C4C=CC(C4)[C@@H]3C(=O)O)nc12 (stereo partly drawn) [Example 16, 3-[(4-methyl-1,3-benzothiazol-2-yl)carbamoyl]bicyclo[2.2.1]hept-5-ene-2-carboxylic acid]	1 to 5 µM	
O=C(Nc1nc2ccc(Oc3ccccc3)cc2s1)[C@@H]1C2C=CC(C2)[C@@H]1C(=O)O (stereo partly drawn) [Example 17, 3-[(6-phenoxy-1,3-benzothiazol-2-yl)carbamoyl]bicyclo[2.2.1]hept-5-ene-2-carboxylic acid]	< 1 µM	
O=C(Nc1nc2ccc(Oc3ccccc3)cc2s1)[C@@H]1C2C=CC(C2)[C@@H]1C(=O)O (stereo partly drawn) [Example 18, [2-hydroxy-1,1-bis(hydroxymethyl)ethyl]ammonium: (1R,2S,3R,4S)-3-[(6-phenoxy-1,3-benzothiazol-2-yl)carbamoyl]bicyclo[2.2.1]hept-5-ene-2-carboxylate]	< 1 µM	
